Measurements from US12485114B2, “Materials and methods useful to induce cancer cell death via methuosis or autophagy or a combination thereof” (The University of Toledo, priority 2017, dated 2025).

What was measured:
[1] = test system: Transcription factor EB (TFEB)— associated lysosomal and autophagy genes; assay: RNA-seq analysis of TFEB-associated lysosomal and autophagy genes; assay type: cell-based; details: HCT-116, 10 μM, 6 h
Text: Autophagosome and lysosomal homeostasis is governed by transcription factor EB (TFEB)—mTOR signaling pathways (TFEB-mTOR pathway). […] (FIG. 51A & FIG. 51B & FIG. 51C).

[2] = test system: HCT116, HCT116 Bax −/−, HCT116 Bak −/−, HCT116 Bax/Bak−/−; assay: Death in apoptosis resistant colon cancer cell lines; assay type: cell-based; details: cell lines missing pro-apoptotic genes Bax and Bak
Text: The cells became sensitive to the cytotoxicity of mitoxantrone when combined with BAPT-27. Further, BAPT-27 induced death in apoptosis resistant cell lines including colon cancer cell lines that are missing important pro-apoptotic genes Bax and Bak using well established models (HCT116, HCT116 Bax −/−, HCT116 Bak −/−, HCT116 Bax/Bak−/−). Accordingly, BAPT-27 represents a family of compounds that induce cell death in sensitive and resistant cancers, as well as those cancers that are refractory to death by conventional apoptosis inducing anticancer agents.

[3] = test system: β-tubulin; assay: β-tubulin expression and microtubules dynamics; assay type: cell-based; parameters: β-tubulin expression levels: dose or concentration left out as unconfirmed
[4] = test system: zebrafish; assay: Safety in zebrafish; assay type: in vivo; details: 100 μM
Procedure: The safety of BAPT-27 was studied in zebrafish. BAPT-27 is safe in zebrafish even at a very high concentration of 100 μM. The fish were healthy with no changes in their morphology, swim positions, or their cardiac parameters. (FIG. 52).

[5] = test system: colon, pancreatic, ovarian, lung, and prostate cancer cell lines; assay: Vacuole accumulation in cancer cell lines; assay type: cell-based
Text: The vacuoles are originated from macropinocytosomes as confirmed by extracellular fluid phase tracers. Vacuolization has been described previously as methuosis. However, the vacuoles induced here combine the characteristics of methuosis, autophagy, enhanced lysosomal activity, and other distinct characteristics.

[6] = test system: HCT116 colon cancer cells; assay: Colony formation assay; assay type: cell-based
Procedure: The cytotoxic efficacy of BAPT-27 was also confirmed by colony formation assay. Colony formation assay was used to determine the long-term capacities of the compound to inhibit cell proliferation and viability. The cells were treated for 2 or 3 days and allowed to grow in compound free medium for up to two weeks. […] It was also observed that a higher concentration of BAPT-27 was needed to reduce the colony formation at 48 h compared to longer treatment (72 h). (FIG. 28A).
The cells were treated for 2 or 3 days and allowed to grow in compound free medium for up to two weeks. […] The number of colonies formed/concentration at each time point is shown in the bar graph in FIG. 28B.

[7] = test system: autophagic signaling pathways; assay: Autophagy markers and autophagy inhibitors (acridine orange, LC3B, 3-MA, chloroquine); assay type: cell-based
Text: (§1) BAPT-27 induced vacuoles that combine both methuosis and autophagy characteristics. […] The author mechanism involved in this non-conventional cell death mechanism is a special type of […] that has been termed methuosis. The treatment of cells by BAPT-27 caused the displacement of the cytoplasm by vacuoles derived from macropinosomes. At early time points, the vacuoles are small in size. The small vacuoles then increase in number, and then fuse with each other over time forming larger vacuoles that cover the whole cytoplasm. Eventually, this causes a disturbance of the cell membrane and burst of the cells, release of fluids, detachment of cell, and death. […] Accordingly, alteration in both autophagic and methuosis mechanisms are involved in the BAPT-27 cell death process.
Without wishing to be bound by theory, it is believed that the mechanism by which BAPT-27 is produces its activities is due to alteration in key signaling pathways and several cellular events: (1) significant activation of macropinocytosis (FIGS. 32-33), and (2) significant alteration in autophagic signaling resulting in the accumulation of autophagic markers such as LC3 II and acridine orange (FIG. 37).
At 6 h treatment, the vacuoles were tiny and smaller in size in combination compared to BAPT-27 alone. (FIG. 48). […] (FIG. 48).

[8] = test system: C57BL/6 mice; assay: Safety studies in C57BL/6 mice; assay type: in vivo
Procedure: FIG. 53A: C57BL/6J mice (8-10 weeks old) were treated intraperitoneally with indicated concentration of BAPT-27 or vehicle (saline) for 14 days. At the end of 14 days, blood was collected in heparin-coated tubes for blood chemistry analysis using abaxis veterinary chemistry analyzer (VETSCAN vs2).
FIG. 53B: Representative immunohistochemical slides are shown for kidney, liver, heart and brain for C57BL/6mice treated intraperitoneally with vehicle (saline) or BAPT-27 at 86.6 mg/kg. The whole tissue section and 10× magnification slides are shown.

[9] = test system: macropinocytosis; assay: Lucifer yellow dye uptake (macropinocytosis); assay type: cell-based; details: 10 μM, 6 h treatment
Text: as §1

[10] = test system: cancer cells; assay: Loss of viability and non-apoptotic cell death assessment (nuclei, electron microscopy, annexin, z-VAD-fmk); assay type: cell-based
Procedure: Cells treated with BAPT-27 lose their viability within 72 h. […] Through electron microscopy there were clearly no signs of apoptosis (i.e., cell shrinkage, nuclear condensation, blebbing) seen.

[11] = test system: HCT15 colon cancer cell line; assay: Morphological assessment of vacuolization; assay type: cell-based
Text: (§2) The methuophagy inducing activities of BAPT-27 were also prominent in different colon cancer cell lines with different genetic profiles. […] (FIG. 42). However, the vacuoles formation was not prominent in normal epithelial colon cells (CRL-1459). (FIG. 42).

[12] = test system: HCT-116 (colon cancer); assay: Morphological assessment of vacuolization; assay type: cell-based
Text: as §2

[13] = test system: HT29 colon cancer cell line; assay: Morphological assessment of vacuolization; assay type: cell-based
Text: as §2

[14] = test system: NSCLC cells resistant to apoptosis; assay: Activity in apoptosis-resistant NSCLC cells; assay type: cell-based
Text: (FIG. 46). NSCLC cells resistant to apoptosis are also sensitive to the activities of BAPT-27.

SMILES: Sc1nnc(-c2ccncc2)n1/N=C/c1c[nH]c2ccccc12 [BAPT-27, 4-(((1H-Indol-3-Yl)Methylene)Amino)-5-(Pyridin-4-Yl)-4H-1,2,4-Triazole-3-Thiol]
- expression of TFEB-associated lysosomal and autophagy genes [1]: upregulated
- cell death in apoptosis resistant cell lines [2]: induced death
- β-tubulin expression levels [3]: no significant change
- microtubules dynamics ([3]; 24 h): significant disturbance
- changes in morphology, swim positions, or cardiac parameters [4]: no changes
- safety in zebrafish [4]: safe
- accumulation of fluid filled-cytoplasmic vacuoles [5]: induces the rapid accumulation of extensive fluid filled-cytoplasmic vacuoles
- colonies number and size ([6]; HCT116, 48 h and 72 h, especially after 72 h treatment): significant inhibition in the colonies number and size
- colony formation ([6]; treated two and three days, then compound free medium up to two weeks): significantly inhibited colony formation
- LC3B cleavage and LC3B loci at the borders of the vacuoles [7]: induced the cleavage of LC3B
- acridine orange in vacuoles (activated acidic compartments) [7]: accumulation of acridine orange
- inhibition of vacuoles formation or cytotoxic effects by autophagy inhibitors 3-MA and chloroquine [7]: did not inhibit
- block of vacuoles formation by 3-methyl adenine ([7]; 3-MA 300 μM, BAPT-27 10 μM, 24 h and 72 hr): does not block
- effect of chloroquine on vacuoles formation ([7]; CQ 5 μM, BAPT-27 10 μM, 6 h): delay of vacuoles formation
- effect of chloroquine on vacuoles regaining normal size ([7]; CQ 5 μM, BAPT-27 10 μM, 24 h): could not prevent
- safety in mice ([8]; 86.6 mg/kg given intraperitoneally): safe
- behavioral or phenotypic toxicity ([8]; up to 14 days): no behavioral or phenotypic toxicity
- Lucifer yellow dye in formed vacuoles [9]: Extensive accumulation
- alteration in the intrinsic apoptotic pathways (proapoptotic and antiapoptotic proteins) [10]: no alteration
- annexin fluorescence [10]: not changed
- apoptotic changes of nuclei (chromatin condensation or DNA fragmentation) [10]: no apoptotic changes
- protection from death by pan-caspase inhibitor z-VAD-fmk [10]: did not protect the cells from death
- time to loss of viability ([10]; cells treated with BAPT-27): ≤ 72 h
- cells observed to have died through apoptosis ([10]; electron microscopy, very high concentration): one in 100 cells
- block of vacuoles formation by z-VAD ([10]; z-VAD 100 μM, BAPT-27 10 μM, 24 h and 72 hr): does not block
- vacuolization [11]: extensive vacuoles formation
- vacuolization [12]: extensive vacuoles formation
- vacuolization [13]: extensive vacuoles formation
- sensitivity to the activities of BAPT-27 [14]: sensitive
